Measurements as given in US12433295B2, “Small-scale robots for biofilm eradication” (THE TRUSTEES OF THE UNIVERSITY OF PENNSYLVANIA, priority 2018, dated 2025).

Tested on: biofilm extracellular matrix
Test: dose dependent extracellular matrix degradation of the enzymes mutanase and dextranase (FIG. 4)
Format: cell-based
Conditions: combination of mutanase and dextranase
Source text: FIG. 4 depicts the dose dependent extracellular matrix degradation of the enzymes mutanase and dextranase.
FIG. 4 depicts the dose dependent extracellular matrix degradation of the enzymes mutanase and dextranase in accordance with an embodiment of disclosed subject matter. While the catalytic function of iron oxide nanoparticles degrades the biofilm matrix more slowly than it substantially eradicates the bacteria, the rate of degradation can be enhanced with enzymes including mutanase and dextranase. A combination of 1.75 U mutanase and 8.75 U dextranase achieves maximal efficacy for extracellular matrix degradation.

| Substance | amount that achieves maximal efficacy for extracellular matrix degradation [U] |
| --- | --- |
| mutanase | 1.75 |
| dextranase | 8.75 |
